From ChEMBL document CHEMBL1154554, “Ganomycins A and B, new antimicrobial farnesyl hydroquinones from the basidiomycete Ganoderma pfeifferi” (2000)
In brackets after ≈: the same amount, converted by molar mass. Activity calls are given as the source filed them. The calls are words filed in the database; no cut-off is given here.

How the values were obtained:
[1] = system: Staphylococcus aureus; test: Antibacterial activity against Staphylococcus aureus ATCC 25923 at 100 ug/disk after 18 hrs by agar diffusion method; format: functional; settings: for zone of inhibition at 100 µg/disc: ATCC 25923, 18 h, read-out: IZ
[2] = system: Serratia marcescens; test: Antibacterial activity against sSerratia marcescens SBUG 9 at 100 ug/disk after 18 hrs by agar diffusion method; format: functional; settings: for zone of inhibition at 100 µg/disc: read-out: IZ
[3] = system: Staphylococcus aureus; test: Antibacterial activity against Staphylococcus aureus ATCC 6538 at 100 ug/disk after 18 hrs by agar diffusion method; format: functional; settings: for zone of inhibition at 100 µg/disc: ATCC 6538, 18 h, read-out: IZ
[4] = system: Micrococcus luteus; test: Antibacterial activity against Micrococcus flavus SBUG 16 at 100 ug/disk after 48 hrs by agar diffusion method; format: functional; settings: for zone of inhibition at 100 µg/disc: read-out: IZ
[5] = system: Micrococcus luteus; test: Antibacterial activity against Micrococcus flavus SBUG 16 after 18 hrs by broth microdilution method; format: functional
[6] = system: Candida maltosa; test: […] activity against Candida maltosa 100 ug/disk after 18 hrs by agar diffusion method; format: functional, organism-based
[7] = system: Staphylococcus aureus; test: Antibacterial activity against Staphylococcus aureus after 18 hrs by broth microdilution method; format: functional
[8] = system: Candida albicans; test: […] activity against Candida albicans at 100 ug/disk after 18 hrs by agar diffusion method; format: functional, organism-based
[9] = system: Staphylococcus aureus; test: Antibacterial activity against Staphylococcus aureus SG511 at 100 ug/disk after 18 hrs by agar diffusion method; format: functional; settings: for zone of inhibition at 100 µg/disc: read-out: IZ
[10] = system: Proteus mirabilis; test: Antibacterial activity against Proteus mirabilis SBUG 47 at 100 ug/disk after 18 hrs by agar diffusion method; format: functional; settings: for zone of inhibition at 100 µg/disc: read-out: IZ
[11] = system: Pseudomonas aeruginosa; test: Antibacterial activity against Pseudomonas aeruginosa ATCC 15442 at 100 ug/disk after 18 hrs by agar diffusion method; format: functional, organism-based
[12] = system: Staphylococcus aureus; test: Antibacterial activity against Staphylococcus aureus ATCC 29213 at 100 ug/disk after 18 hrs by agar diffusion method; format: functional; settings: for zone of inhibition at 100 µg/disc: ATCC 29213, 18 h, read-out: IZ
[13] = system: Bacillus subtilis; test: Antibacterial activity against Bacillus subtilis SBUG 14 at 100 ug/disk after 18 hrs by agar diffusion method; format: functional; settings: for zone of inhibition at 100 µg/disc: read-out: IZ
[14] = system: Escherichia coli; test: Antibacterial activity against sEscherichia coli SBUG 13 at 100 ug/disk after 18 hrs by agar diffusion method; format: functional; settings: for zone of inhibition at 100 µg/disc: read-out: IZ

MIC [5] [µg/mL]	MIC [7] [µg/mL]	Structure (SMILES)	zone of inhibition at 100 µg/disc [1] [mm]	zone of inhibition at 100 µg/disc [2] [mm]	zone of inhibition at 100 µg/disc [3] [mm]	zone of inhibition at 100 µg/disc [4] [mm]	Activity [6]	Activity [8]	zone of inhibition at 100 µg/disc [9] [mm]	zone of inhibition at 100 µg/disc [10] [mm]	Activity [11]	zone of inhibition at 100 µg/disc [12] [mm]	zone of inhibition at 100 µg/disc [13] [mm]	zone of inhibition at 100 µg/disc [14] [mm]	also measured
2.5 (≈ 7.26 µM)	25 (≈ 72.6 µM)	CC(C)=CCC/C(C)=C/CC/C(=C/Cc1cc(O)ccc1O)C(=O)O [GANOMYCIN B]	17	16	20	26	inactive	inactive	24	15	inactive	18	15	5	
		COC1=C(OC)C(=O)C(C/C=C(\C)CC/C=C(\C)CC/C=C(\C)CC/C=C(\C)CC/C=C(\C)CC/C=C(\C)CC/C=C(\C)CC/C=C(\C)CC/C=C(\C)CCC=C(C)C)=C(C)C1=O									inactive				Activity [1]: inactive; Activity [2]: inactive; Activity [3]: inactive; Activity [4]: inactive; Activity [9]: inactive; Activity [10]: inactive; Activity [12]: inactive; Activity [13]: inactive; Activity [14]: inactive
0.25 (≈ 0.715 µM)	0.05 (≈ 0.143 µM)	CC1(C)S[C@@H]2[C@H](NC(=O)[C@H](N)c3ccccc3)C(=O)N2[C@H]1C(=O)O [AMPICILLIN]													
2.5 (≈ 6.94 µM)	25 (≈ 69.4 µM)	C/C(=C\CC/C(C)=C/CC/C(=C/Cc1cc(O)ccc1O)C(=O)O)CO [GANOMYCIN A]	15	15	19	25	inactive	inactive	24	15	inactive	16	16	4	
